Reference: paper PMC6337391 (Molecules, 2019)

Legend:
human h-15-LOX-1 = molecular target: T1, human h-15-LOX-1 (Homo sapiens, UniProt P16050); assay: Human h-15-LOX-1 screening UV assay; type: biochemical; conditions: read-out: h-15-LOX-1 Inhb. IC50
T1 sequence (P16050 1-662): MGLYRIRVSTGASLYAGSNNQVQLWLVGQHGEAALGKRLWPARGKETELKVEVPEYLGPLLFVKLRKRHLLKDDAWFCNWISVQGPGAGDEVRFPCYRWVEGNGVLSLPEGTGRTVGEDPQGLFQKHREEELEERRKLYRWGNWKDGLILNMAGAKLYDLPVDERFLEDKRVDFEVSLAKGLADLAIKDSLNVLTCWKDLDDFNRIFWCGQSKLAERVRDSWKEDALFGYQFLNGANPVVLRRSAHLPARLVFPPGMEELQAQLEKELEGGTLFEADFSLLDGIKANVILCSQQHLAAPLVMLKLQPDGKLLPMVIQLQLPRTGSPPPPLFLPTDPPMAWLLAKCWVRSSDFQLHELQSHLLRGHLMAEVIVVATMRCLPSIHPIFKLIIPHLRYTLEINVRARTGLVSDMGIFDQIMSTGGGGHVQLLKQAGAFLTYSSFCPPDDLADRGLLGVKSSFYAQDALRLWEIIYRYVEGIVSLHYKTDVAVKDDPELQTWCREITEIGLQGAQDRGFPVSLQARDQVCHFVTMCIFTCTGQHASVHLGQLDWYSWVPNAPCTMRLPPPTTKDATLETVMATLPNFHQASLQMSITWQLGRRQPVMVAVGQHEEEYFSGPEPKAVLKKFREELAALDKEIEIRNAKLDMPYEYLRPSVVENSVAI
Description: The residual enzyme activity was measured after 10 min pre-incubation with the tested compounds at room temperature. […] Compound c11 follows.
The assay buffer consists of HEPES titrated to pH 7.5 using a concentrated aqueous solution of NaOH. Linoleic acid (LA) was used as a substrate. The linear absorbance increase in absence of the inhibitor was set as 100%, whereas the absorbance increase in absence of the enzyme was set to 0%. All experiments were performed in triplicate and the average triplicate values and their standard deviations are plotted. The vertical axis describes the residual enzyme activity percent % of the human h-15-LOX-1, whereas the horizontal axis describes the concentration of 50 µM of the compounds. The half maximal inhibitor concentration (IC50) of the inhibitors for h-15-LOX-1 was determined using the same assay (Figure 6 and Figure 7).

soybean lipoxygenase = molecular target: T2, soybean lipoxygenase (Glycine max, UniProt P08170); assay: biochemical; type: biochemical; conditions: soybean LOX
T2 sequence (P08170 1-839): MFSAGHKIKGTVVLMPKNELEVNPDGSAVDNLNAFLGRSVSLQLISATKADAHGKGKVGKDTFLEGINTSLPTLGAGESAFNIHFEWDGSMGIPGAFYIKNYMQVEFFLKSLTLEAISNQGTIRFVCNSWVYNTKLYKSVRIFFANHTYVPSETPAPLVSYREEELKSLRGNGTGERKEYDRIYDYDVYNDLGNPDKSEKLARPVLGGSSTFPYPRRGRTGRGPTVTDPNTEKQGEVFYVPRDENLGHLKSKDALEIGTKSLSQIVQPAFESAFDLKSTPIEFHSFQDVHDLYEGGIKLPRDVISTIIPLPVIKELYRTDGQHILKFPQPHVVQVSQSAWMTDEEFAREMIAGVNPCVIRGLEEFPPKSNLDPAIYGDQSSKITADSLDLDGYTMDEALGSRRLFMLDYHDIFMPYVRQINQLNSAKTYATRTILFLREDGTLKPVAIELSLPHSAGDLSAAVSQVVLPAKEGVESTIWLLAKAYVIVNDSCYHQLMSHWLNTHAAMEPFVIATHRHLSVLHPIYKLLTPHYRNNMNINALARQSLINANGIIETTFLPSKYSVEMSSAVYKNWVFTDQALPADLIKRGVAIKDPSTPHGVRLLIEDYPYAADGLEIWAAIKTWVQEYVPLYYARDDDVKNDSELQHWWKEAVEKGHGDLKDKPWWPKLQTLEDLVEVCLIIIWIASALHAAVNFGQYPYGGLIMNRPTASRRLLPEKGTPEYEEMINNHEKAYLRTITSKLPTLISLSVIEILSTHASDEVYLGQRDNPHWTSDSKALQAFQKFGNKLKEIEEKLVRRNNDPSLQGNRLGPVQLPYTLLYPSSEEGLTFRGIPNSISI
Method in brief: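 Soybean LOX (enzyme solution 1/9 × 10^−4 w/v in saline) incubated at room temperature with sodium linoleate ([…]) in tris buffer pH 9. Compounds added from DMSO stocks. IC50 derived from several concentrations.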

[1] = molecular target: acetyl-cholinesterase (AChE) (Electrophorus electricus, UniProt O42275); type: biochemical
Chain of acetyl-cholinesterase (AChE) (O42275 24-633): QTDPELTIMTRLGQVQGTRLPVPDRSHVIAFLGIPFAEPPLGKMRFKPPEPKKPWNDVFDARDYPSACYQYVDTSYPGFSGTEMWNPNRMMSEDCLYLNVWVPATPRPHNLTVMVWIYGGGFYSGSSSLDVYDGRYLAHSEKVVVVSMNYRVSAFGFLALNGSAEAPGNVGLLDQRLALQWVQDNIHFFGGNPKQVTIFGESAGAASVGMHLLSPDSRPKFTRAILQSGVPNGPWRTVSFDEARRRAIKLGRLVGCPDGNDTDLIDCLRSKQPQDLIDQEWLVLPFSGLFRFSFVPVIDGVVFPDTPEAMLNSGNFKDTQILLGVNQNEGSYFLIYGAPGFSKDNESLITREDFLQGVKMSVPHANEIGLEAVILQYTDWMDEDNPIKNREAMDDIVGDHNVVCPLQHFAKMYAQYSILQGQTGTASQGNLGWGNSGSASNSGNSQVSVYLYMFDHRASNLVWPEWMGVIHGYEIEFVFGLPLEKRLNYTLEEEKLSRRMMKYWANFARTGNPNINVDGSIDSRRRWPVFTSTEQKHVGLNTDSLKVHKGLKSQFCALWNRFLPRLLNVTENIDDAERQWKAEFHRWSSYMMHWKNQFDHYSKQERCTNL
Description: We investigated, in vitro, the inhibitory activity of a, b, c, and e derivatives on acetylcholinesterase activity using acetylthiocholine as a substrate [29].
A modified procedure which was followed in our previous publication was performed [29]. A stock solution (10 mM) of the compounds diluted in DMSO was used (final concentration 100 µM).

[2] = Reducing activity with the stable radical DPPH
Method in brief: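 DPPH (final 0.05 mM) in absolute ethanol mixed with an equal volume of compound at 0.05 or 0.1 mM, ethanol as control. Absorbance at 517 nm read at room temperature after 20 and 60 min, expressed as reducing activity RA%.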

[3] = Lipophilicity as RM values by RP-TLC; type: physicochemical; parameters: key: RM = log[(1/Rf) − 1]; conditions: methanol/water 70/30, SD < 10%
Method in brief: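 Reversed-phase TLC on silica gel plates impregnated with 5% (v/v) liquid paraffin, methanol/water 70/30 (v/v) mobile phase, saturated tanks at 24 °C, UV detection. RM = log[(1/Rf) − 1] from five Rf measurements.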

[4] = Inhibition of linoleic acid lipid peroxidation (AAPH)
Method in brief: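 Sodium linoleate oxidation was initiated by AAPH in 0.05 M phosphate buffer, pH 7.4, at 37 °C, with test compound present and DMSO as blank. Conjugated diene hydroperoxide formation was followed as the absorbance increase at 234 nm.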

[5] = tested on: L929 mouse fibroblasts cells; assay: Cytotoxicity, propidium iodide fluorescence method; type: cell-based; conditions: 24-h incubation
Method in brief: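 L929 cells in EMEM with 10% horse serum were allowed to attach for 24 h, then exposed to 1, 10, 20, 50 and 100 μM compound for 24 h at 37 °C. Cells were detached, stained with propidium iodide, and cell death was measured by flow cytometry.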

[6] = ABTS•+ decolorization assay
Method in brief: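 Compounds (10 mM DMSO stocks, diluted) added to ABTS•+ radical generated by potassium persulfate oxidation of ABTS. Decolorization followed as absorbance at room temperature, with Trolox as standard.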

Row | SMILES | IC50 (human h-15-LOX-1) | % LOX Inhb. @ 100 μM (soybean lipoxygenase) | % AChE Inhb. @ 100 μM [1] | RA% 100 μM 20 min [2] | RA% 100 μM 60 min [2] | RM [3] | AAPH% @ 100 μM (anti-lipid peroxidation) [4] | 1 μM Average (% pi) ± σ [5] | 10 μM Average (% pi) ± σ [5] | 20 μM Average (% pi) ± σ [5] | 50 μM Average (% pi) ± σ [5] | 100 μM Average (% pi) ± σ [5] | ABTS•+ Inhb. % @ 100 μM [6] | IC50 (soybean lipoxygenase; read-out: LOX IC50)
1 | c1ccc2c(c1)SCc1c-2[nH]c2ccccc12 [PD-146176, reference compound] | 16 µM |  |  |  |  |  |  |  |  |  |  |  |  | 
2 | O=C(/C=C/C1=C2C=CC=CC2NC1)c1ccc(O)cc1 (centres unmarked) [a6, (E)-3-(2,7a-dihydro-1H-indol-3-yl)-1-(4-hydroxyphenyl) prop-2-en-1-one] |  | 60% | Νο | 15% | 2% | −0.65 | 45% | 1.71 ± 2.08% | 1.66 ± 0.59% | 3.25 ± 2.6% | 6.67 ± 1.35% | 6.67 ± 1.35% | No | 
3 | O=C(/C=C/c1c[nH]c2ccccc12)c1ccc(OCCCOc2ccc(C(=O)/C=C/c3c[nH]c4ccccc34)cc2)cc1 [c6, (2E,2′E)-1,1′-((propane-1,3-diylbis(oxy))bis(4,1-phenylene))bis(3-(1H-indol-3-yl)prop-2-en-1-one)] |  | 98% | did not present any activity and Νο | No | No | −0.97 | 100% | 1.12 ± 1.15% | 2.2 ± 1.66% | 1.16 ± 0.81% | 3.03 ± 0.02% | 3.03 ± 0.02% | No | 54 µM
